Measured values from patent US20040086471A1, “Compositions for darkening the skin and/or hair” (priority 2002, published 2004).

Key:
[1] = test system: Type IV pigmented epidermal equivalents (human melanocytes and keratinocytes); tyrosinase activity / melanin deposition; assay: Pigmentation in pigmented epidermal equivalents (DOPA and F&M staining); type: cell-based; conditions: for Overall Score (change of pigmentation by DOPA and F&M staining) / Score DOPA staining (tyrosinase activity) / Score F&M staining (Pigment deposition): 0.1% (w/v) in PBS, treated three or five days, type IV epidermal equivalents
Procedure: Copper PCA (Barnet Products Corp., Englewood cliffs, N.J.) was tested for its ability to induce pigmentation in pigmented epidermal equivalents. The pigmented epidermal equivalents contained human normal melanocytes, together with normal, human-derived epidermal keratinocytes, which have been cultured to form a multi-layered, highly differentiated model of the human epidermis. Type IV pigmented epidermal equivalents (consisting of normal human keratinocytes pooled from variety of phototype skins and normal human melanocytes derived from type IV phototype skin) were treated with test compounds for three or five days and samples were harvested on the fourth or sixth day of the study. The harvested equivalents were stained with DOPA (a substrate for tyrosinase) or with Fontana-Mason (F&M) (Sheenan DC, Hrapckak BB, eds: Theory and practice of Histo-Thchnology (St Louis: CV Mosby, 1980) pp 223-277). F&M staining identifies silver nitrate reducing activity, which, in skin, identifies melanin.
The epidermal equivalents used were SkinEthic® reconstructed human epidermis from SkinEthic™ Laboratory (Nice, France). UV irradiation was performed with a UVB FS light source in an exposure chamber, with plate covers removed and Phosphate-buffered saline (PBS, from Gibco-BRL, Gaithersburg, Md.) present in the lower chamber. UVB intensity was measured with a UVX radiometer (UVP Inc., San Gabriel, Ca.). Equivalents were treated with 0.1-0.12 J/cm2. […] The copper PCA and tyrosine were dissolved in PBS.
On the fourth or sixth day of the study, the equivalents were fixed, sectioned and F&M stained, or they were DOPA stained as whole without sectioning, using standard techniques. At least three sections per equivalent, three equivalents per experiment were processed. Each experiment was repeated three times. DOPA-stained epidermal equivalents were evaluated for the change in tyrosinase activity. F&M-stained histological sections were evaluated for the change in pigment deposition. Due to the low content of melanin within the type IV epidermal equivalent, it was not possible to quantify the level of pigment within melanocytes in F&M stained sections by image analysis. Therefore, the pigment change was evaluated using the scale defined below in Table 1.
Table 2 represents the overall score in change of pigmentation, as evaluated by DOPA and F&M staining, as set forth above, when equivalents were exposed to Copper PCA (0.1% (w/v)) and/or tyrosine (0.1% (w/v)) or UVB irradiation (0.10J/cm^2).

[2] = test system: skin of Yucatan microswine; assay: Pigment deposition in swine skin in vivo (F&M histology of biopsies); conditions: for pigment deposition in swine skin (in words): topical, in vivo, histological analysis
Excerpt: Dark skinned Yucatan microswine (Charles River, Portland, Me.) were housed in appropriately sized cages in an environmentally controlled room with a 12-hour light—12-hour dark photoperiod and supplied with food and water ad libi tum. Twenty μl of test materials were applied topically, twice a day, five days/week, for eight or nine weeks, on the dorsum of the swine. Treatments of individual swine were always arranged in a head to tail order on one side, and in a tail to head order on the other side of the animal. Biopsies were taken using standard techniques.
Swine were treated with either 0.5% w(w/v) of the copper PCA and/or tyrosine or ultraviolet-B radiation (as a positive control). The copper PCA and tyrosine were dissolved in ethanol: propylene glycol 70:30 (v/v). A […] erythema dose (MED) of UVB was determined by placing a plastic template with 1×1 inch^2 cutouts on the dorsum of the swine. Using a UVB lamp (Model UVM-57, 302 nm lamp, UVP Inc., Upland, Calif.) placed on the template, sites were exposed to UVB with increasing time points, every other day for five days. Unexposed sites were covered with the same material as the template. One MED was established as the dose that produces the least amount of visible erythema. Swine were exposed to one MED, once per day, on three alternate days (Mon, Wed, Fri).
Following eight weeks of treatment, skin biopsies were taken using standard methods, for pigment deposition analysis. Sections from the skin biopsies were stained with Hematoxylin and Eosin (H&E), or with Fontana-Mason (F&M), using standard procedures (Sheenan DC, Hrapckak BB, eds., Theory and Practice of Histo-Technology (The C. V. Mosby Co., St. Louis (1980) pp. 223-277). At least three sections per biopsy were processed. Each experiment was repeated at least two times.
Table 4 represents the average value of all sites of responsive swine treated with each test material. The scale for evaluation is defined in Table 3.

tyrosinase activity in human pigmented epidermal equivalents (in words) ([1]; in vitro) | Structure (SMILES) | Overall Score (change of pigmentation by DOPA and F&M staining) [1] | Score DOPA staining (tyrosinase activity) [1] | Score F&M staining (Pigment deposition) [1] | Score (pigment deposition, capped epidermal cells) ([2]; 0.5% (w/v) topical, twice a day, five days/week, eight weeks, average of all sites of responsive swine) | pigment deposition in swine skin (in words) [2] | pigment deposition in swine skin (in words) ([2]; listed as copper PCA)
significantly increases | O=C1CC[C@@H](C(=O)[O-])N1.O=C1CC[C@@H](C(=O)[O-])N1.[Cu+2] [Copper PCA] | 1-2 | 1-2 | 1-2 | 2-3 | enhanced pigment deposition | significantly increases
– | N[C@@H](Cc1ccc(O)cc1)C(=O)O [Tyrosine, tyrosine] | 0-2 | 1-2 | 0-1 | – | – | –
